Measurements as given in patent US20240374618A1, “COMPOSITION OF TANNIC ACID AND VITAMIN D AND METHODS OF USE” (Nulastin, Inc., priority 2021, published 2024).

Legend:
fibroblast cultures = assay: Amount of tropoelastin in fibroblast cultures measured using PCR; assay type: cell-based, human; conditions: tannic acid added to cultures that contained vitamin D3; PCR after 18 hours; FIG. 2A
Description: FIG. 2A depicts the amount of tropoelastin in fibroblast cultures measured using PCR after 18 hours.
(§1) Cultured human dermal fibroblasts were grown in the presence of or absence of vitamin D (10^−7 M), tannic acid ([…]), or a combination of vitamin D and tannic acid (2 μg/mL) (FIGS. 2A-2B and FIGS. 3A-3C). Immunodetection of elastin was performed as described above.

human dermal fibroblasts = assay: Immunodetection of elastin in cultured human dermal fibroblasts; assay type: cell-based; conditions: for elastin concentration: FIGS. 1A-1C
Description: Biological effects of tannic acid in the presence of hyaluronic acid or ferulic acid were tested on dermal fibroblasts derived from punch biopsies of healthy skin. All fibroblasts were isolated by allowing migration out of skin explants and passaged by trypsinization. Fibroblasts were maintained in alpha-minimum essential medium supplemented with 20 mM HEPES, 1% antibiotics and antimycotics, 1% L-Glutamate and 2% fetal bovine serum (FBS). Cells were plated (50×10^5 cells/dish) to reach confluency and were cultured for 7 days in the presence or absence of hyaluronic acid (0.1%), ferulic acid (5 μg/mL), tannic acid (2 μg/mL), or a combination thereof.
Cell cultures prepared according to Example 1 maintained in the presence or absence of tannic acid, hyaluronic acid, or ferulic acid were fixed in cold 100% methanol at […] for detection of elastin or in 4% paraformaldehyde at room temperature for detection of collagen I. The multiple parallel cultures were incubated with […] of polyclonal antibody to tropoelastin (Elastin Products, Owensville, MI), or polyclonal antibody to collagen type I (Chemicon, Temecula, CA). Cultures were incubated with the respective fluorescein-conjugated goat anti-rabbit, goat anti-mouse, or rabbit anti-goat secondary antibodies. Nuclei were counter stained with propidium iodide (Sigma, St. Louis, MO). All cultures were examined with a Nikon Eclipse E1000 microscope attached to a cooled CCD camera (QImaging, Retiga EX) and analyzed with the computer-generated morphometric analysis system, in which the Image-Pro Plus software (Media Cybernetics, Silver Springs, MD) estimates the proportion of areas marked with green fluorescence, in relation to the entire (1 square mm) analyzed field.
Cultured human dermal fibroblasts were grown in the presence or absence of tannic acid at low concentration (2 μg/mL) and high concentration (20 μg/mL). Immunodetection of elastin was performed as described in Example 2.
as §1
Cultured human dermal fibroblasts were grown in the presence of or absence hyaluronic acid (0.1%), tannic acid (2 μg/mL), or a combination of hyaluronic acid (0.1%) and tannic acid (2 μg/mL). Immunodetection of elastin was performed as described above.
Cultured human dermal fibroblasts were grown in the presence or absence of ferulic acid (5 μg/mL), tannic acid (2 μg/mL), or a combination of ferulic acid (5 μg/mL) and tannic acid (2 μg/mL). Immunodetection of elastin and collagen I was performed as described above. Results are shown in FIGS. 5A-5C, and FIGS. 6A-6B for elastin and FIGS. 7A-7C and FIG. 8 for collagen.
Cultured human dermal fibroblasts were grown in the presence or absence of ferulic acid (20 μM), tannic acid (2 μg/mL), or copper sulfate (2 μM). Fibroblasts were also grown in presence of a combination of ferulic acid (20 μM) and copper sulfate (2 μM), a combination of ferulic acid (20 μM) and tannic acid (2 μg/mL), and a combination of tannic acid (2 μg/mL) and copper sulfate (2 μM). Immunodetection of elastin was performed as described above.

With `O=C(OC[C@H]1O[C@@H](OC(=O)c2cc(O)c(O)c(OC(=O)c3cc(O)c(O)c(O)c3)c2)[C@H](OC(=O)c2cc(O)c(O)c(OC(=O)c3cc(O)c(O)c(O)c3)c2)[C@@H](OC(=O)c2cc(O)c(O)c(OC(=O)c3cc(O)c(O)c(O)c3)c2)[C@@H]1OC(=O)c1cc(O)c(O)c(OC(=O)c2cc(O)c(O)c(O)c2)c1)c1cc(O)c(O)c(OC(=O)c2cc(O)c(O)c(O)c2)c1` [tannic acid] the amount of tropoelastin (fibroblast cultures) was “increased the amount of tropoelastin”, the “net deposition of elastin” value (human dermal fibroblasts; tannic acid (2 μg/mL) added to hyaluronic acid (0.1%)) was “improvement in net deposition of elastin” and the “net deposition of elastin” value (human dermal fibroblasts; tannic acid (2 μg/mL) added to vitamin D (10^−7 M)) was “improvement in net deposition of elastin”. For the same compound, the production of elastin (human dermal fibroblasts; tannic acid (2 μg/mL) in the presence of ferulic acid (5 μg/mL)) was “improved production of elastin even in the presence of ferulic acid”, the elastin concentration (human dermal fibroblasts; tannic acid at high concentration (20 μg/mL)) was “caused elastosis” and the elastin concentration (human dermal fibroblasts; tannic acid at low concentration (2 μg/mL)) was “improved elastin concentration”.

hyaluronic acid was tested, and the elastin production (human dermal fibroblasts; hyaluronic acid (0.1%) alone) was “inhibition of elastin production”.

vitamin D was tested, and the elastin production (human dermal fibroblasts; vitamin D (10^−7 M) alone) was “inhibition of elastin production”.
